“And” between values parts separate entries of the source, which are not always exact repeats. Equal values may be shown once.
How the values were obtained:
mast cells = experiment: Mast cell degranulation after crushing of the sciatic nerve (in vivo, histological count); parameters: species or system Male Spraugue Dawley Rats; conditions: 20 mg/kg intraperitoneally for 15 days, on soy lecithin liposomes, sciatic nerve compression at 16th day, sacrifice three hours after, control average 61.4
Description: In order to verify the pharmacological activity of N-acyl derivatives of aminoalcohols, and in particular of N-PEA, under conditions of traumatic noxa due to crushing of the sciatic nerve, and therefore able to induce mast cells degranulation, the following "in vivo" biologic test was carried out.
Male Spraugue Dawley Rats weighing about 200 -250 g were divided into two groups and subjected for 15 days to two different treatments: the first group, being the control group, was intraperitoneally treated with a solution of liposomes of soy lecithin, whereas the second group was intraperitoneally treated with 20 mg/kg N-PEA vehiculated on soy lecithin liposomes.
At the 16th day the animals were subjected to a bland general anesthesia with ethyl ether, thereby proceeding to the operation of the nerve lesion as hereinbelow described. The left sciatic nerve was exposed just in the spot of its entrance to the haunch, by operating a dissection of the muscular bands. The thus exposed sciatic nerve was then repeatedly compressed as closest as possible to its origin, by using a crushing forceps. The wound was temporarily sewn up and the animals were left to recover.
Three hours after the sciatic nerve compression lesion the animals were sacrificed in order to take the sciatic nerve samples and to fix it for the histological analysis with a mixture of acetic acid and formalin. […]

[1] = Physical chemical characteristics: solubility; type: physicochemical
Source text: The physical chemical characteristics of the N-PEA product synthesized according to the present example were the following : […]

solubility in water [1]: insoluble | solubility in organic solvent ([1]; solvents in which soluble): Hot MetOH, CHCl3, DMSO | solubility in aqueous vehicles ([1]; stated as the reason for choosing the liposome vehicle): poor solubility
SMILES: CCCCCCCCCCCCCCCC(=O)NCCO [N-PEA, N-(2-hydroxyethyl)hexadecanamide]
Number of degranulated cells on a total of 100 examined cells, average (mast cells; average of 5 rats): 36.6 | Number of degranulated cells on a total of 100 examined cells (mast cells; individual rats, 20 mg/kg): 35 and 44 and 37 and 25 and 42

Source: EP0570714B1, “Use of aminoalcohol-N-acylderivatives for the manufacture of a medicament for the treatment of neurogenic endoneural oedema of the peripheral nerve” (LIFEGROUP S.p.A., priority 1992, dated 1993)
